Laboratory results reported in ChEMBL document CHEMBL3745705, “Discovery of Oral VEGFR-2 Inhibitors with Prolonged Ocular Retention That Are Efficacious in Models of Wet Age-Related Macular Degeneration” (J Med Chem, 2015).
≈ marks a conversion by molar mass, not a printed value.

Legend:
Mus musculus [1] = species: Mus musculus; experiment: animal or person; conditions: C57BL/6, po, read-out: INH
[2] = Aqueous solubility of the compound at pH 6.8; conditions: aqueous medium
Mus musculus [3] = experiment: Antiangiogenic activity in po dosed C57BL/6 mouse laser-induced choroidal neovascularization assessed as inhibition of neovascular lesion formation administered qd for 6 days measured on day 7 by microscopic analysis; assay type: functional; conditions: C57BL/6, po
[4] = Plasma concentration in mouse model of laser-induced choroidal neovascularization at 100 mg/kg, po bid for 7 days measured 16 hrs post last dose; assay type: ADME, organism-based
Mus musculus [5] = experiment: Antiangiogenic activity in mouse model of laser-induced choroidal neovascularization assessed as inhibition of neovascular lesion formation at 100 mg/kg, po bid for 7 days; assay type: functional; conditions: 168 h

Row | solubility [2] [µM] | SMILES | inhibition in vivo at 10 mg/kg (Mus musculus [1]) [%] | further results
1 | 20 (≈ 8.37 µg/mL) | CC(C)(C)c1cc(NC(=O)n2ccc3cc(Oc4ncnc5c4CNC5)ccc32)no1 | 83 | –
2 | 37 (≈ 15 µg/mL) | CC(C)c1cc(NC(=O)n2ccc3cc(Oc4ncnc5c4CNC5)ccc32)no1 | 96 | –
3 | < 5 | Nc1cc(Oc2ccc3c(ccn3C(=O)Nc3cccc(C(F)(F)F)c3)c2)ncn1 | 44 | –
4 | 833 (≈ 348 µg/mL) | CC(C)c1cc(NC(=O)n2ccc3cc(Oc4ncnc5c4CCNC5)ccc32)n[nH]1 | 0 | –
5 | 489 (≈ 203 µg/mL) | CC1(c2cc(NC(=O)n3ccc4cc(Oc5ncnc6c5CNC6)ccc43)n[nH]2)CC1 | 43 | –
6 | – | C[C@@H]1Cc2c(ncnc2Oc2ccc3c(ccn3C(=O)Nc3cccc(C(F)(F)F)c3)c2)CN1 | 58 | –
7 | 682 (≈ 294 µg/mL) | CC(C)(C)c1cc(NC(=O)n2ccc3cc(Oc4ncnc5c4CCNC5)ccc32)n[nH]1 | 0 | –
8 | – | C[C@H]1Cc2c(ncnc2Oc2ccc3c(ccn3C(=O)Nc3cccc(C(F)(F)F)c3)c2)CN1 | 96 | ED50 (Mus musculus [3]): 3.6 mg/kg; ED90 (Mus musculus [3]): 8.5 mg/kg
9 | < 5 | CCN1CCc2c(ncnc2Oc2ccc3c(ccn3C(=O)Nc3cccc(C(F)(F)F)c3)c2)C1 | 81 | –
10 | – | Cc1ccc(Nc2nccc(N(C)c3ccc4c(C)n(C)nc4c3)n2)cc1S(N)(=O)=O [PAZOPANIB] | – | concentration at 16 h [4]: 13 µM; inhibition in vivo at 100 mg/kg (Mus musculus [5]): 93%
11 | – | CC1(c2cc(NC(=O)n3ccc4cc(Oc5ncnc6c5CNC6)ccc43)no2)CC1 | 90 | –
12 | 84 (≈ 38.1 µg/mL) | O=C(Nc1cccc(C(F)(F)F)c1)n1ccc2cc(Oc3ncnc4c3CCNC4)ccc21 | 87 | –
13 | 232 (≈ 97.1 µg/mL) | CC(C)(C)c1cc(NC(=O)n2ccc3cc(Oc4ncnc5c4CNC5)ccc32)on1 | 58 | –
14 | – | C[C@@H]1NCc2ncnc(Oc3ccc4c(ccn4C(=O)Nc4cc(C(C)(C)C)on4)c3)c21 | 33 | –
